In the NIST ThermoML archive (doi:10.1016/j.jct.2008.03.011):
± gives the expanded uncertainty stated by the source.

How the values were obtained:
[1] = refractive index (Na D-line) (dimensionless); xn = mol fraction of the nth substance listed; details: 101 kPa, Liquid, Standard Abbe refractometry
[2] = xn = mol fraction of the nth substance listed; details: 101 kPa, Liquid; for speed of sound: Sing-around technique in a fixed-path interferometer

CCC(C)=O [butanone] + C1CCCCC1
Details | mass density, 293.15 K [kg/m3] | mass density, 298.15 K [kg/m3] | mass density, 303.15 K [kg/m3] | refractive index, 293.15 K | refractive index, 298.15 K | refractive index, 303.15 K | speed of sound, 293.15 K [m/s] | speed of sound, 298.15 K [m/s] | speed of sound, 303.15 K [m/s]
[1], x2 = 0 | – | – | – | 1.37879 ± 0.00033 | 1.37618 ± 0.00033 | 1.37355 ± 0.00033 | – | – | –
[1], x2 = 0.0472 | – | – | – | 1.38079 ± 0.00032 | 1.37811 ± 0.00032 | 1.3754 ± 0.00032 | – | – | –
[1], x2 = 0.0979 | – | – | – | 1.3829 ± 0.00032 | 1.38016 ± 0.00032 | 1.37748 ± 0.00032 | – | – | –
[1], x2 = 0.1986 | – | – | – | 1.38711 ± 0.00032 | 1.38436 ± 0.00032 | 1.38159 ± 0.00032 | – | – | –
[1], x2 = 0.2973 | – | – | – | 1.39144 ± 0.00032 | 1.38857 ± 0.00032 | 1.38588 ± 0.00032 | – | – | –
[1], x2 = 0.3975 | – | – | – | 1.39592 ± 0.00032 | 1.3929 ± 0.00032 | 1.39029 ± 0.00032 | – | – | –
[1], x2 = 0.497 | – | – | – | 1.40055 ± 0.00032 | 1.39774 ± 0.00032 | 1.39494 ± 0.00032 | – | – | –
[1], x2 = 0.6045 | – | – | – | 1.40575 ± 0.00032 | 1.4026 ± 0.00032 | 1.40014 ± 0.00032 | – | – | –
[1], x2 = 0.6922 | – | – | – | 1.41006 ± 0.00032 | 1.40723 ± 0.00032 | 1.40443 ± 0.00032 | – | – | –
[1], x2 = 0.7984 | – | – | – | 1.4153 ± 0.00031 | 1.4125 ± 0.00031 | 1.4097 ± 0.00031 | – | – | –
[1], x2 = 0.8978 | – | – | – | 1.42041 ± 0.00031 | 1.41769 ± 0.00031 | 1.41473 ± 0.00031 | – | – | –
[1], x2 = 0.9476 | – | – | – | 1.42316 ± 0.00031 | 1.42035 ± 0.00031 | 1.41746 ± 0.00031 | – | – | –
[2], x2 = 0 | 805.6 ± 0.5 | 799.7 ± 0.5 | 794.9 ± 0.5 | – | – | – | 1212 ± 2 | 1192 ± 2 | 1163 ± 2
[2], x2 = 0.0472 | 802.6 ± 0.5 | 796.4 ± 0.5 | 791.5 ± 0.5 | – | – | – | 1212 ± 2 | 1190 ± 2 | 1159 ± 2
[2], x2 = 0.0979 | 799.8 ± 0.5 | 793.7 ± 0.5 | 788.8 ± 0.5 | – | – | – | 1213 ± 2 | 1190 ± 2 | 1159 ± 2
[2], x2 = 0.1986 | 794.7 ± 0.5 | 788.8 ± 0.5 | 784 ± 0.5 | – | – | – | 1212 ± 2 | 1190 ± 2 | 1158 ± 2
[2], x2 = 0.2973 | 790.3 ± 0.5 | 784.8 ± 0.5 | 779.9 ± 0.5 | – | – | – | 1212 ± 2 | 1190 ± 2 | 1158 ± 2
[2], x2 = 0.3975 | 786.6 ± 0.5 | 781.4 ± 0.5 | 776.4 ± 0.5 | – | – | – | 1216 ± 2 | 1192 ± 2 | 1161 ± 2
[2], x2 = 0.497 | 783.7 ± 0.5 | 778.4 ± 0.5 | 773.5 ± 0.5 | – | – | – | 1221 ± 2 | 1198 ± 2 | 1166 ± 2
[2], x2 = 0.6045 | 781 ± 0.5 | 776.1 ± 0.5 | 771.1 ± 0.5 | – | – | – | 1229 ± 2 | 1204 ± 2 | 1172 ± 2
[2], x2 = 0.6922 | 779.5 ± 0.5 | 774.6 ± 0.5 | 769.6 ± 0.5 | – | – | – | 1236 ± 2 | 1212 ± 2 | 1179 ± 2
[2], x2 = 0.7984 | 778.2 ± 0.5 | 773.4 ± 0.5 | 768.5 ± 0.5 | – | – | – | 1248 ± 2 | 1222 ± 2 | 1188 ± 2
[2], x2 = 0.8978 | 777.8 ± 0.5 | 773.1 ± 0.5 | 768.2 ± 0.5 | – | – | – | 1261 ± 2 | 1236 ± 2 | 1200 ± 2
[2], x2 = 0.9476 | 778 ± 0.5 | 773.2 ± 0.5 | 768.5 ± 0.5 | – | – | – | 1269 ± 2 | 1244 ± 2 | 1207 ± 2
